Like-named read-outs stand apart in the source and are kept apart here.
Assays:
5-HT2A receptor = 5-HT2A receptor (Homo sapiens (Human), UniProt P28223); assay: Radioligand binding assay ([3H]-ketanserin) on membranes of HEK293 EBNA cells expressing human 5-HT2A receptor
Experimental: (§1) HEK293 EBNA cells were transiently transfected with expression plasmids encoding for the human D2 or D3 or for the human 5-HT2A receptor, respectively. The cells were harvested 48 h post-transfection, washed three times with cold PBS and stored at −80° C. prior to use. The pellet was suspended in cold 50 mM Tris-HCl buffer containing 10 mM EDTA (pH 7.4) and was homogenized with a Polytron (Kinematica AG, Basel, Switzerland) for 20-30 sec at 12.000 rpm. After centrifugation at 48.000×g for 30 min at 4° C., the pellet was resuspended in cold 10 mM Tris-HCl buffer containing 0.1 mM EDTA (pH 7.4), homogenized, and centrifuged as above. This pellet was further resuspended in a smaller volume of ice cold 10 mM Tris-HCl buffer containing 0.1 mM EDTA (pH 7.4) and homogenized with a Polytron for 20-30 sec at 12.000 rpm. The protein content of this homogenate was determined with the Bio-Rad (Bradford) Protein Assay (Biorad Laboratories GmbH, München, Germany) according to the instructions of the manufacturer using gamma globulin as the standard. This homogenate was stored at −80° C. in aliquots and thawed immediately prior to use.
(§2) Aliquots of membrane preparations were thawed at RT, resuspended in assay buffer (D2, D3: 50 mM Tris-HCl, 120 mM NaCl, 5 mM MgCl2, 1 mM EDTA, 5 mM KCl, 1.5 mM CaCl2, pH=7.4; 5-HT2A: 50 mM Tris-HCl, 10 mM MgCl2, 1 mM EGTA, pH=7.4), homogenized with a Polytron for 20-30 sec at 12.000 rpm and adjusted to a final concentration of approximately 7.5 μg protein/well (D2, D3) and 15 μg protein/well (5-HT2A), respectively.
(§3) The nonspecific binding was determined with equally composed reaction mixtures in the presence of 10 μM unlabelled spiperone. Per well 45 μl of Microscint 40 (Perkin Elmer, Schwerzenbach, Switzerland) was added, plates for sealed, shaken for 20 min and counted for 3 min on a Topcount Microplate Scintillation Counter (Can berra Packard SA, Ziirich, Switzerland) with quenching correction.
(§4) The CPM value for each duplicate of a concentration of competing compound was averaged (y1), then the % specific binding was calculated according to the equation (((y1−non-specific)/(total binding−non-specific))×100). Graphs were plotted with the % specific binding using XLfit, a curve fitting program that iteratively plots the data using Levenberg-Marquardt algorithm. The single site competition analysis equation used was y=A+((B−A)/(1+((x/C)D))), where y is the % specific binding, A is the minimum y, B is the maximum y, C is the IC50, x is the log 10 of the concentration of the competing compound and D is the slope of the curve (the Hill Coefficient). […] The affinity constant (K) was calculated using the Cheng-Prusoff equation Ki=(IC50/1+([L]/Kd), where [L] is the concentration of radioligand and Kd is the dissociation constant of the radioligand at the receptor as determined by the saturation isotherm.

D3 receptor = D3 receptor (Homo sapiens (Human), UniProt P35462); assay: Radioligand binding assay ([3H]-spiperone) on membranes of HEK293 EBNA cells expressing human D3 receptor
Experimental: as §1, §2, §3, §4

D2 receptor = D2 receptor (Homo sapiens (Human), UniProt P14416); assay: Radioligand binding assay ([3H]-spiperone) on membranes of HEK293 EBNA cells expressing human D2 receptor; conditions: human receptor in HEK293 EBNA cells; 0.7 nM [3H]-spiperone
Chain of D2 receptor (P14416 whole entry): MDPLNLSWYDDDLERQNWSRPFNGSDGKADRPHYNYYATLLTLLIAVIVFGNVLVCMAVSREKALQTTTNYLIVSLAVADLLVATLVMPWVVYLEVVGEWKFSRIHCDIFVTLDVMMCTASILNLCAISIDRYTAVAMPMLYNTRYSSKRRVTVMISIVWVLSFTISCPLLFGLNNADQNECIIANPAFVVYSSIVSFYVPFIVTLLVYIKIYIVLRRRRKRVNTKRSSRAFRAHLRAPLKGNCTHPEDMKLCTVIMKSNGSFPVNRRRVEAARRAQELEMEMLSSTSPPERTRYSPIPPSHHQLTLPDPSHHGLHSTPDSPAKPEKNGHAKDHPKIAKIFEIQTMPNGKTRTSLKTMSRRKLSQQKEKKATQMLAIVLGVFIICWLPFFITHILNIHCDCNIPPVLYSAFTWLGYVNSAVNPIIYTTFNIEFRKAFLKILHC
Experimental: as §1, §2, §3, §4

[1] = read-out: 5HT2A Ki, human receptor in HEK293 EBNA cells, 1.1 nM [3H]-ketanserin
[2] = read-out: D3 Ki, human receptor in HEK293 EBNA cells, 0.5 nM [3H]-spiperone

Chain of D3 receptor (P35462 whole entry): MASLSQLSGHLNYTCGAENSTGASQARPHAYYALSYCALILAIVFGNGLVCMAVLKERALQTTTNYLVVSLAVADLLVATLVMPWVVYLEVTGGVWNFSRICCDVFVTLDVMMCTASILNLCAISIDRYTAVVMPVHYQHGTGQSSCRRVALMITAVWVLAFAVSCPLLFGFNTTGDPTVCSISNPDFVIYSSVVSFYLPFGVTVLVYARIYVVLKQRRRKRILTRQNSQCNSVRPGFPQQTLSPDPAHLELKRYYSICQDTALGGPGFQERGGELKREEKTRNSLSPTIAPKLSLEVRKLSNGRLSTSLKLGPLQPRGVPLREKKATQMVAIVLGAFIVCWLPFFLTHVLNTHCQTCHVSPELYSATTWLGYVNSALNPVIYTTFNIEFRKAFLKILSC

Compound	Ki (5-HT2A receptor) [nM]	Ki (D3 receptor) [nM]	Ki (5-HT2A receptor; [1]) [nM]	Ki (D2 receptor) [nM]	Ki (D3 receptor; [2]) [nM]	Ki (5-HT2A receptor; read-out: 5HT2A Ki) [nM]
O=C(C[C@H]1COCCO1)N[C@H]1CC[C@H](CCN2CCC(c3cccc4c3OCO4)CC2)CC1 (single isomer, unassigned) [Example 4, Trans-N-{4-[2-(4-Benzo[1,3]dioxol-4-yl-piperidin-1-yl)-ethyl]-cyclohexyl}-2-(S) or (R)-[1,4]dioxan-2-yl-acetamide]	11.9	9.79				
O=C(C[C@@H]1COCCO1)N[C@H]1CC[C@H](CCN2CCC(c3cccc4c3OCO4)CC2)CC1 (single isomer, unassigned) [Example 5, Trans-N-{4-[2-(4-Benzo[1,3]dioxol-4-yl-piperidin-1-yl)-ethyl]-cyclohexyl}-2-(R) or (S)-[1,4]dioxan-2-yl-acetamide]	17	9.5				
CC(=O)N[C@H]1CC[C@H](CCN2CCC(c3cccc4c3OCO4)CC2)CC1 [Example 1, Trans-N-{4-[2-(4-Benzo[1,3]dioxol-4-yl-piperidin-1-yl)-ethyl]-cyclohexyl}-acetamide]			23.9	254	4.99	
COCCC(=O)N[C@H]1CC[C@H](CCN2CCC(c3cccc4c3OCO4)CC2)CC1 [Example 2, Trans-N-{4-[2-(4-Benzo[1,3]dioxol-4-yl-piperidin-1-yl)-ethyl]-cyclohexyl}-3-methoxy-propionamide]			38.2	427	5.82	
O=C(CC1COCCO1)N[C@H]1CC[C@H](CCN2CCC(c3cccc4c3OCO4)CC2)CC1 (stereo partly drawn) [Example 3, Trans-N-{4-[2-(4-Benzo[1,3]dioxol-4-yl-piperidin-1-yl)-ethyl]-cyclohexyl}-2-[1,4]dioxan-2-yl-acetamide]					8.88	13.9
O=C(CC1CCCO1)N[C@H]1CC[C@H](CCN2CCC(c3cccc4c3OCO4)CC2)CC1 (stereo partly drawn) [Example 6, Trans-N-{4-[2-(4-Benzo[1,3]dioxol-4-yl-piperidin-1-yl)-ethyl]-cyclohexyl}-2-(tetrahydro-furan-2-yl)-acetamide]				389	9.06	21
CCC(=O)N[C@H]1CC[C@H](CCN2CCC(c3cccc4c3OCO4)CC2)CC1 [Example 7, Trans-N-{4-[2-(4-Benzo[1,3]dioxol-4-yl-piperidin-1-yl)-ethyl]-cyclohexyl}-propionamide]			16.6	204	4.19	
O=C(CC1CC1)N[C@H]1CC[C@H](CCN2CCC(c3cccc4c3OCO4)CC2)CC1 [Example 8, Trans-N-{4-[2-(4-Benzo[1,3]dioxol-4-yl-piperidin-1-yl)-ethyl]-cyclohexyl}-2-cyclopropyl-acetamide]			17.6	303	2.54	
O=C(N[C@H]1CC[C@H](CCN2CCC(c3cccc4c3OCO4)CC2)CC1)c1ccccc1 [Example 9, Trans-N-{4-[2-(4-Benzo[1,3]dioxol-4-yl-piperidin-1-yl)-ethyl]-cyclohexyl}-benzamide]				120	3.63	5.14
O=C(CC(F)(F)F)N[C@H]1CC[C@H](CCN2CCC(c3cccc4c3OCO4)CC2)CC1 [Example 10, Trans-N-{4-[2-(4-Benzo[1,3]dioxol-4-yl-piperidin-1-yl)-ethyl]-cyclohexyl}-3,3,3-trifluoro-propionamide]			18.1	209	3.98	
O=C(CCC(F)(F)F)N[C@H]1CC[C@H](CCN2CCC(c3cccc4c3OCO4)CC2)CC1 [Example 11, Trans-N-{4-[2-(4-Benzo[1,3]dioxol-4-yl-piperidin-1-yl)-ethyl]-cyclohexyl}-4,4,4-trifluoro-butyramide]			32	410	7.74	
O=C(N[C@H]1CC[C@H](CCN2CCC(c3cccc4c3OCO4)CC2)CC1)C(O)C(F)(F)F (stereo partly drawn) [Example 12, Trans-N-{4-[2-(4-Benzo[1,3]dioxol-4-yl-piperidin-1-yl)-ethyl]-cyclohexyl}-3,3,3-trifluoro-2-hydroxy-propionamide]				236	8.45	14
COCC(=O)N[C@H]1CC[C@H](CCN2CCC(c3cccc4c3OCO4)CC2)CC1 [Example 13, Trans-N-{4-[2-(4-Benzo[1,3]dioxol-4-yl-piperidin-1-yl)-ethyl]-cyclohexyl}-2-methoxy-acetamide]				507	18	14.6
N#Cc1ccc(C(=O)N[C@H]2CC[C@H](CCN3CCC(c4cccc5c4OCO5)CC3)CC2)cc1 [Example 14, Trans-N-{4-[2-(4-Benzo[1,3]dioxol-4-yl-piperidin-1-yl)-ethyl]-cyclohexyl}-4-cyano-benzamide]			9.02	153	7.79	
Cc1ccc(C(=O)N[C@H]2CC[C@H](CCN3CCC(c4cccc5c4OCO5)CC3)CC2)cn1 [Example 15, Trans-N-{4-[2-(4-Benzo[1,3]dioxol-4-yl-piperidin-1-yl)-ethyl]-cyclohexyl}-6-methyl-nicotinamide]			11.5	133	11.6	
O=C(C[C@H]1CCCO1)N[C@H]1CC[C@H](CCN2CCC(c3cccc4c3OCO4)CC2)CC1 [Example 16, Trans-N-{4-[2-(4-Benzo[1,3]dioxol-4-yl-piperidin-1-yl)-ethyl]-cyclohexyl}-2-(R)-tetrahydro-furan-2-yl-acetamide]				228	10.8	28
O=C(C[C@@H]1CCCO1)N[C@H]1CC[C@H](CCN2CCC(c3cccc4c3OCO4)CC2)CC1 [Example 17, Trans-N-{4-[2-(4-Benzo[1,3]dioxol-4-yl-piperidin-1-yl)-ethyl]-cyclohexyl}-2-(S)-tetrahydro-furan-2-yl-acetamide]				531	6.41	33.8
COC(=O)N[C@H]1CC[C@H](CCN2CCC(c3cccc4c3OCO4)CC2)CC1 [Example 18, Trans-{4-[2-(4-Benzo[1,3]dioxol-4-yl-piperidin-1-yl)-ethyl]-cyclohexyl}-carbamic acid methyl ester]				133	3.26	21.8
Cc1cc(CC(=O)N[C@H]2CC[C@H](CCN3CCC(c4cccc5c4OCO5)CC3)CC2)on1 [Example 19, Trans-N-{4-[2-(4-Benzo[1,3]dioxol-4-yl-piperidin-1-yl)-ethyl]-cyclohexyl}-2-(3-methyl-isoxazol-5-yl)-acetamide]			19.8	516	1.19	
N#CCC(=O)N[C@H]1CC[C@H](CCN2CCC(c3cccc4c3OCO4)CC2)CC1 [Example 20, Trans-N-{-4-[2-(4-Benzo[1,3]dioxol-4-yl-piperidin-1-yl)-ethyl]-cyclohexyl}-2-cyano-acetamide]				203	3.12	22.4
O=C(CC1(O)CCCCC1)N[C@H]1CC[C@H](CCN2CCC(c3cccc4c3OCO4)CC2)CC1 [Example 21, Trans-N-{4-[2-(4-Benzo[1,3]dioxol-4-yl-piperidin-1-yl)-ethyl]-cyclohexyl}-2-(1-hydroxy-cyclohexyl)-acetamide]				361	10.4	15.7
O=C(CC1CCCCO1)N[C@H]1CC[C@H](CCN2CCC(c3cccc4c3OCO4)CC2)CC1 (stereo partly drawn) [Example 22, Trans-N-{4-[2-(4-Benzo[1,3]dioxol-4-yl-piperidin-1-yl)-ethyl]-cyclohexyl}-2-(tetrahydro-pyran-2-yl)-acetamide]				523	9.35	15.6

Reference: patent US8598357B2, “Benzodioxole piperidine compounds” (Hoffmann-La Roche Inc., priority 2011, dated 2013)
